Measurements published in patent US8367623B2, “Glycolipid and medicine for autoimmune disease containing the same as active ingredient” (Japan as Represented by President of National Center of …, priority 2001, dated 2013).

Experiments:
Murine spleen cells [1] = experiment: spleen cell proliferation reaction (thymidine incorporation); assay type: cell-based; settings: FIG. 7 and FIG. 9
Experimental: Murine spleen cells were isolated, and the proliferation reaction for the synthesized glycolipids were measured using thymidine incorporation into the cells as the indicator.
(§1) Murine spleen cells were isolated, and the proliferation reactions for synthesized glycolipids were measured using thymidine incorporation into the cells as the indicator. […] Murine spleen cells were isolated, and levels of INF-γ and IL-4 formation due to the synthesized glycolipids were measured using the ELISA method.

Murine spleen cells [2] = experiment: spleen cell cytokine measurements (INF-γ and IL-4, ELISA); assay type: cell-based; settings: FIG. 8 and FIG. 9
Experimental: Murine spleen cells were isolated, and levels of INF-γ and IL-4 formation due to synthesized glycolipids were measured using the ELISA method.
as §1

[3] = test system: experimental autoimmune encephalomyelitis (EAE); experiment: EAE suppression test in NKT knockout mice; assay type: in vivo, NKT knockout mice (TCR J alpha 281 knockout mice); settings: for Incidence / Max. score / Onset / Total score: NKT knockout mice, 0 day oral administration, 400 ng/kg
serum INF-γ and IL-4 = experiment: cytokines in blood (serum INF-γ and IL-4, ELISA); assay type: in vivo; settings: administered to mice, serum levels with elapsed time, FIG. 6
Experimental: A large amount of cytokine is known to be released into the blood in a short duration of time when NKT cells are stimulated. Therefore, serum INF-γ and IL-4 levels with elapsed time were measured using the ELISA method when the synthesized glycolipids were administered to mice.

[4] = test system: collagen induced arthritis; experiment: collagen arthritis (CIA) suppression test, SJL mice; assay type: in vivo; settings: FIG. 4
[5] = test system: experimental autoimmune encephalomyelitis (EAE); experiment: experimental autoimmune encephalomyelitis (EAE) suppression test, B6 mice; assay type: in vivo, C57BL6J(B6) mice; settings: for Incidence / Onset / Total score / Max. score / Path. score: 400 ng/kg; for Path. score: pathological score 0-4; for EAE suppression effect: oral administration 400 ng/kg
[6] = test system: experimental autoimmune encephalomyelitis (EAE); experiment: mechanism of EAE suppression, with or without anti-IL-4 antibody; assay type: in vivo, mice
diabetes incidence = experiment: suppression test of diabetes incidence in NOD mice; assay type: in vivo; settings: NOD mice four weeks in age, 100 μg/kg intraperitoneal, twice, FIG. 5
Experimental: Next, a suppression test of diabetes incidence was conducted using NOD mice.

[7] = test system: collagen induced arthritis; experiment: collagen arthritis (CIA) suppression test, C57BL6 mice; assay type: in vivo; settings: B6 mice, 500 μg/kg intraperitoneally twice a week from the additional immunization, FIG. 4
anti-MOG antibody = experiment: serum anti-MOG antibody measurements (ELISA); assay type: in vivo; settings: FIG. 10
Text: The ELISA method was used to measure levels of anti-MOG antibody and its isotype in the group treated using synthesized glycolipids. The anti-MOG antibody level rose in the group treated using Compound 25.

[8] = test system: experimental autoimmune encephalomyelitis (EAE), collagen induced arthritis; settings: J. Immunol. 2001, 166, 662-669, cited from earlier work
[9] = 0 day oral administration, clinical score 0-6
[10] = anti-IL-4 (+), anti-IL-4 antibody (1 mg/ml) intraperitoneally

With `CCCCCCCCCCCCCCCCCCCCCCCC(=O)N[C@@H](CO[C@H]1O[C@H](CO)[C@H](O)[C@H](O)[C@H]1O)[C@H](O)[C@H](O)CCCC` [Compound 23, (2S,3S,4R)-1-O-(α-D-galactosyl)-2-(tetracosanoylamino)-1,3,4-octane triol] the “spleen cell proliferation reaction” value (Murine spleen cells [1]) was “Significant spleen cell proliferation reaction” and the “cytokine predominantly formed by spleen cells (INF-γ / IL-4)” value (Murine spleen cells [2]) was “IL-4 was predominantly formed”.
With `CCCCCCCCCCCCCCCCCCCCCCCC(=O)N[C@@H](CO[C@H]1O[C@H](CO)[C@H](O)[C@H](O)[C@H]1O)[C@H](O)[C@H](O)CCC` [Compound 24, (2S,3S,4R)-1-O-(α-D-galactosyl)-2-(tetracosanoylamino)-1,3,4-heptane triol] the “spleen cell proliferation reaction” value (Murine spleen cells [1]) was “Significant spleen cell proliferation reaction” and the “cytokine predominantly formed by spleen cells (INF-γ / IL-4)” value (Murine spleen cells [2]) was “IL-4 was predominantly formed”.
In the case of `CCCCCCCCCCCCCCCCCCCCCCCC(=O)N[C@@H](CO[C@H]1O[C@H](CO)[C@H](O)[C@H](O)[C@H]1O)[C@H](O)[C@H](O)CCCCC` [Compound 25, (2S,3S,4R)-1-O-(α-D-galactosyl)-2-(tetracosanoylamino)-1,3,4-nonane triol], the EAE suppression effect ([3]; NKT knockout mice (TCR J alpha 281 knockout mice), result in words) is reported as “could not be observed”, the Incidence [3] is reported as 6/6 and the Max. score [3] is reported as 3.64 ± 0.28. The Onset [3] was 12.43 ± 0.53, the Total score [3] was 34.36 ± 4.15 and the “serum cytokine predominantly formed (INF-γ / IL-4)” value (serum INF-γ and IL-4) was “IL-4 was predominantly formed”. For the same compound, the “suppression of collagen induced arthritis (clinical score)” value (“suppression … (clinical score)” below) ([4]; 500 μg/kg intraperitoneally twice a week from the additional immunization) was “effectively suppressed”, the “suppression … (clinical score)” value ([4]; 500 μg/kg intraperitoneally twice a week, administration upon appearance of symptoms) was “effectively suppressed” and the Incidence ([5]; 0 day oral administration) was 10/12. The Onset ([5]; 0 day oral administration) was 14.80 ± 1.22, the Total score ([5]; 0 day oral administration) was 10.71 ± 3.23 and the Max. score [5, 9] was 1.42 ± 0.33. For the same compound, the Path. score ([5]; 0 day oral administration) was 1.00 ± 0.13, the Incidence ([5]; 8th day oral administration) was 6/7 and the Max. score ([5]; 8th day oral administration) was 2.25 ± 0.51. The Onset ([5]; 8th day oral administration) was 16.43 ± 1.95, the Total score ([5]; 8th day oral administration) was 10.94 ± 3.40 and the EAE suppression effect ([5]; result in words) was “EAE suppression effect was observed”. The “suppression effect in the pathological test” value ([5]; oral administration, result in words) was “suppression effect was observed”, the Incidence [6, 10] was 10/10 and the Max. score [6, 10] was 3.50 ± 0.15. For the same compound, the Onset [6, 10] was 9.43 ± 0.90, the Total score [6, 10] was 38.79 ± 2.94 and the Incidence ([6]; anti-IL-4 (−)) was 9/10. It also gave a Max. score ([6]; anti-IL-4 (−)) of 2.75 ± 0.37, an Onset ([6]; anti-IL-4 (−)) of 11.00 ± 0.78 and a Total score ([6]; anti-IL-4 (−)) of 26.05 ± 4.16. The “EAE suppression effect when anti-IL-4 antibody was administered” value ([6]; anti-IL-4 antibody, result in words) was “disappeared”, the diabetes incidence (diabetes incidence) was “significantly suppressed” and the “suppression … (clinical score)” value [7] was “A suppression effect was observed”. For the same compound, the “anti-MOG antibody isotype, IgG1 level” value (anti-MOG antibody) was “rose significantly”, the anti-MOG antibody level (anti-MOG antibody) was “rose” and the “spleen cell proliferation reaction” value (Murine spleen cells [1]) was “Significant spleen cell proliferation reaction”. The “cytokine predominantly formed by spleen cells (INF-γ / IL-4)” value (Murine spleen cells [2]) was “IL-4 was predominantly formed”.
For `CCCCCCCCCCCCCCCCCCCCCCCCCC(=O)N[C@@H](CO[C@H]1O[C@H](CO)[C@H](O)[C@H](O)[C@H]1O)[C@H](O)[C@H](O)CCCCCCCCCCCCCC` [α-GC, (2S,3S,4R)-1-O-(α-D-galactosyl)-2-(N-hexacosanoylamino)-1,3,4-octadecane triol, reference compound], the Incidence [3] was 6/6, the Max. score [3] was 3.67 ± 0.42 and the Onset [3] was 13.33 ± 1.41. For the same compound, the Total score [3] was 32.25 ± 6.66, the “effect in suppressing or treating autoimmune diseases” value ([8]; EAE and collagen induced arthritis models) was “clearly not effective” and the cytokines induced [8] was “induces both IL-4, a cytokine that suppresses autoimmune diseases, as well as IFN-γ”. The “serum cytokine predominantly formed (INF-γ / IL-4)” value (serum INF-γ and IL-4) was “INF-γ was predominantly formed”, the Incidence ([5]; 0 day oral administration) was 12/12 and the Onset ([5]; 0 day oral administration) was 14.27 ± 0.98. The Total score ([5]; 0 day oral administration) was 20.32 ± 4.07, the Max. score [5, 9] was 2.41 ± 0.37 and the Path. score ([5]; 0 day oral administration) was 1.79 ± 0.38. The Incidence ([5]; 8th day oral administration) was 7/7, the Max. score ([5]; 8th day oral administration) was 3.00 ± 0.29 and the Onset ([5]; 8th day oral administration) was 13.86 ± 0.99. For the same compound, the Total score ([5]; 8th day oral administration) was 17.50 ± 2.74, the EAE suppression effect ([5]; result in words) was “no suppression effect was observed” and the Incidence [6, 10] was 10/10. For the same compound, the Max. score [6, 10] was 3.79 ± 0.29, the Onset [6, 10] was 11.29 ± 1.58 and the Total score [6, 10] was 37.00 ± 5.02. The Incidence ([6]; anti-IL-4 (−)) was 10/10, the Max. score ([6]; anti-IL-4 (−)) was 4.00 ± 0.25 and the Onset ([6]; anti-IL-4 (−)) was 9.10 ± 0.84. The Total score ([6]; anti-IL-4 (−)) was 45.00 ± 3.87 and the “cytokine predominantly formed by spleen cells (INF-γ / IL-4)” value (Murine spleen cells [2]) was “INF-γ was predominantly formed”.
